# Results as given in patent US20240192197A1, “NOVEL SCREENING SYSTEM FOR DRUG TARGET ANTAGONIST BASED ON CELL LIFE/DEATH PHENOTYPE” (CENTER FOR EXCELLENCE IN MOLECULAR CELL SCIENCE, CHINESE …, priority 2021, published 2024).
# Molecular target: T1, FKBP12(F36V)-ΔCASP9 fusion protein (Homo sapiens, UniProt P55211+P62942, F37V)
# T1 construct: expressed in transfected cells
# Assay: Verification of screening cell lines: AP1903-induced death of cells expressing target protein-FKBP12(F36V)-ΔCASP9 fusion
# Format: cell-based
# Settings: no target protein degradation agent present
# Description: The screening system of the F-C fusion protein of the present invention can be applied to important targets of various diseases.
# T1 sequence (P62942+P55211 fused P62942:F37V): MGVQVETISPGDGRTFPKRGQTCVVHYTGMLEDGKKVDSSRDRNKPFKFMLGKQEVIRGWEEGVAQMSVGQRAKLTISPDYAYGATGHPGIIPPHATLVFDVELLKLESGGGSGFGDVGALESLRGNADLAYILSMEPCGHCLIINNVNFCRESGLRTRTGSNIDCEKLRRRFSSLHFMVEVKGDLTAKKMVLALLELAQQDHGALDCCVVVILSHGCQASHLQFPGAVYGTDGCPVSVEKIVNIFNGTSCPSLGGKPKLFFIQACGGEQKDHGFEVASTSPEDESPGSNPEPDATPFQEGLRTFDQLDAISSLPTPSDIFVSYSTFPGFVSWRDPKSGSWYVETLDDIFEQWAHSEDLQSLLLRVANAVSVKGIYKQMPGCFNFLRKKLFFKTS
structure (smiles),measurement,value
CC[C@H](C(=O)N1CCCC[C@H]1C(=O)O[C@H](CCc1ccc(OC)c(OC)c1)c1cccc(OCC(=O)NCCNC(=O)COc2cccc([C@@H](CCc3ccc(OC)c(OC)c3)OC(=O)[C@@H]3CCCCN3C(=O)[C@@H](CC)c3cc(OC)c(OC)c(OC)c3)c2)c1)c1cc(OC)c(OC)c(OC)c1 [AP1903],state of cells expressing target protein-FKBP12(F36V)-ΔCASP9 fusion after AP1903,cells are dead
